Key:
Type in all cases: in vivo
[1] = test system: caterpillars of the army worm (Spodoptera frugiperda); experiment: Spodoptera frugiperda test (SPODFR spray treatment); settings: 500 g/ha, spray, after 7 days; for pest or weed control at 500 g/ha: Spodoptera frugiperda, 168 h, read-out: activity (caterpillars killed)
Experimental: Spodoptera frugiperda Test (SPODFR Spray Treatment) Solvents: 78.0 parts by weight of acetone • • 1.5 parts by weight of dimethylformamide Emulsifier: 0.5 part by weight of alkylaryl polyglycol ether
(§1) To produce a suitable preparation of active compound, 1 part by weight of active compound is mixed with the stated amounts of solvents and emulsifier, and the concentrate is diluted with emulsifier-containing water to the desired concentration.
Discs of maize leaves (Zea mays) are sprayed with an active compound preparation of the desired concentration and, after drying, populated with caterpillars of the army worm (Spodoptera frugiperda) besetzt.
After 7 days, the activity in % is determined. 100% means that all caterpillars have been killed; 0% means that none of the caterpillars have been killed.

[2] = test system: greenhouse red spider mite (Tetranychus urticae); experiment: Tetranychus test; OP-resistant (TETRUR spray treatment); settings: 500 g/ha, spray, after 6 days; for pest or weed control at 500 g/ha: Tetranychus urticae, 144 h, read-out: activity (spider mites killed)
Experimental: Tetranychus Test; OP-Resistant (TETRUR Spray Treatment) Solvents: 78.0 parts by weight of acetone • • 1.5 parts by weight of dimethylformamide Emulsifier: 0.5 part by weight of alkylaryl polyglycol ether
as §1
Discs of bean leaves (Phaseolus vulgaris) infested by all stages of the greenhouse red spider mite (Tetranychus urticae) are sprayed with an active compound preparation of the desired concentration.
After 6 days, the activity in % is determined. 100% means that all spider mites have been killed; 0% means that none of the spider mites have been killed.

[3] = test system: cat fleas (Ctenocephalides felis, fully sensitive laboratory strain); experiment: Contact test against fleas in-vitro (CTECFE contact); settings: 500 g/ha, after 48 h
Experimental: Contact Test Against Fleas In-Vitro (CTECFE Contact)
An amount of 0.9 mg of active compound is weighed out, and 1 ml of acetone is added.
Of this acetone solution, either […] are transferred directly into roll-necked test tubes or an aliquot is diluted with 4 parts of acetone 1:5. For its part, 250 μl of this dilution are pipetted into roll-necked test tubes, or the dilution is diluted further, etc., until the desired number of dilution steps is reached.
The roll-necked test tubes containing the solution of the active compound in acetone are immediately coated in a fume cupboard by 2 h of swing rotation at 30 rpm. After evaporation of the solvent, the active compound contained in the acetone gives, at the highest concentration tested, an active compound content of 500 g/ha (or 500 μg/dm^2) on the surface of the test tube.
10-20 Adult cat fleas (Ctenocephalides felis, fully sensitive laboratory strain) anesthetized with CO2 are transferred into the test tubes prepared in this manner, and the test tubes are closed with a plastic roll-necked lid provided with fine holes.
The test tubes are stored vertically at room temperature and humidity for 24 or 48 h. After 24 and 48 h, the activity of the active compound applied is determined by comparison with an acetone-treated control. Here, an observed normal activity for all fleas corresponds to 0% activity, a strongly restricted or uncoordinated (knock-down) movement or death of all fleas corresponds to 100% activity.

[4] = test system: Anopheles gambiae (homocygus kdr); experiment: Anopheles test (ANPHGB surface treatment); settings: for knock-down activity: 100 mg/m^2, two hours after contact, exposition 30 minutes
Experimental: Anopheles Test (ANPHGB Surface Treatment) Solvent: Acetone
(§2) To produce a suitable preparation of active compound, the active compound is dissolved in acetone (2 mg/ml). The active compound preparation is pipetted onto a glazed tile and, after drying, adult mosquitoes of the species Anopheles gambiae (homocygus kdr) are placed onto the treated tile. The exposition time is 30 minutes.
(§3) Two hours after contact to the treated surface, the knock-down proportion of the test animals in % is determined.
24 hours after contact to the treated surface, the mortality in % is determined. Here, 100% means that all mosquitoes have been killed; 0% means that none of the mosquitoes has been killed.

[5] = test system: Aedes aegypti; experiment: Aedes test (AEDSAE surface treatment); settings: for knock-down activity: 100 mg/m^2, two hours after contact, exposition 30 minutes; for mortality at 100 mg/m2: Aedes aegypti, read-out: activity (mortality in %)
Experimental: Aedes Test (AEDSAE Surface Treatment)
as §2, with “Aedes aegypti” for “Anopheles gambiae (homocygus kdr)”
as §3
24 hours after contact to the treated surface, the mortality in % is determined Here, 100% means that all mosquitoes have been killed; 0% means that none of the mosquitoes has been killed.

[6] = test system: green peach aphid (Myzus persicae); experiment: Myzus test (MYZUPE spray treatment); settings: 500 g/ha, spray, after 6 days
Experimental: Myzus Test (MYZUPE Spray Treatment) Solvents: 78 parts by weight of acetone • • 1.5 parts by weight of dimethylformamide Emulsifier: 0.5 part by weight of alkylaryl polyglycol ether
as §1
Discs of Chinese cabbage leaves (Brassica pekinensis) which are infested by all stages of the green peach aphid (Myzus persicae) are sprayed with an active compound preparation of the desired concentration.
After 6 days, the activity in % is determined. 100% means that all aphids have been killed; 0% means that none of the aphids have been killed.

[7] = test system: larvae of the mustard beetle (Phaedon cochleariae); experiment: Phaedon test (PHAECO spray treatment); settings: 500 g/ha, spray, after 7 days
Experimental: Phaedon Test ([…] Spray Treatment) Solvents: 78.0 parts by weight of acetone • • 1.5 parts by weight of dimethylformamide Emulsifier: 0.5 part by weight of alkylaryl polyglycol ether To produce a suitable preparation of active compound, 1 part by weight of active compound is mixed with the stated amounts of solvents and emulsifiers, and the concentrate is diluted with emulsifier-containing water to the desired concentration. Discs of Chinese cabbage leaves (Brassica pekinensis) are sprayed with an active compound preparation of the desired concentration and, after drying, populated with larvae of the mustard beetle (Phaedon cochleariae).

Compound	activity (caterpillars killed) [1] [%]	activity (spider mites killed) [2] [%]	activity against cat fleas [3] [%]	knock-down activity [4] [%]	knock-down activity [5] [%]	activity (aphids killed) [6] [%]	activity (beetle larvae killed) [7] [%]	also measured
COc1ccc2c(c1)C(=Nc1ccc(C)cc1)C(=CSc1ccc(F)cc1)CC2 [Example 1-32]	100	100	100					
Cc1ccc(N=C2C=CC(C)(C)CC2=CSc2ccc(F)cc2)cc1 (mixture of isomers) [Example 1-44]	83	90		100	90			
Cc1ccc(N=C2C(=CSc3ccc(F)cc3)CCc3ccccc32)c(C)c1 [Example 1-43]	100	80		100	100	90	100	
COc1ccc2c(c1)C(C)C(=CSc1ccc(F)cc1)C2=Nc1ccc(C)cc1 (mixture of isomers) [Example 1-65]	100	100		100	85	100	100	
Cc1ccc(N=C2C(=CSc3ccc(F)cc3)CSc3cc(C)ccc32)cc1 [Example 1-76]				100	80			
Cc1ccc(N=C2C(=CSc3ccc(F)cc3)COc3cccc(C)c32)cc1 [Example 1-86]				100	95			
Cc1ccc(N=C2C(=CSc3ccc(F)cc3)CCc3ccccc32)cc1C [Example 1-41]	100	80		100	95	90	100	
Cc1cccc(N=C2C(=CSc3ccc(F)cc3)CCc3ccccc32)c1 [Example 1-88]	100	100		100	85	100	100	
Cc1ccc(N=C2c3ccccc3CCC2C(Sc2ccccc2)Sc2ccccc2)cc1 (centres unmarked) [Example 2-1]				100	100			mortality at 100 mg/m2 ([4]; Anopheles gambiae, read-out: activity (mortality in %)): 100%; pest or weed control at 500 g/ha ([6]; Myzus persicae, 144 h, read-out: activity (aphids killed)): 90%; pest or weed control at 500 g/ha [1]: 100%; pest or weed control at 500 g/ha ([7]; Phaedon cochleariae, 168 h, read-out: activity (beetle larvae killed)): 100%; mortality at 100 mg/m2 [5]: 100%; pest or weed control at 500 g/ha [2]: 80%
Cc1ccc(N=C2C(=CSc3ccc(F)cc3)CCc3cc(Cl)ccc32)cc1 [Example 1-47]	100	100	100	85		100	100	
CCOC1=CC(=CSc2ccc(F)cc2)C(=Nc2ccc(C)cc2)CC1 (mixture of isomers) [Example 1-96]		90			80	90		
Cc1ccc(N=C2C(=CSc3cccc(F)c3)C3CCC2C3)cc1 (centres unmarked) [Example 1-102]				100	100			
Cc1ccc(N=C2C(=CSc3ccccc3F)C3CCC2C3)cc1 (centres unmarked) [Example 1-103]				100	100			
Cc1ccc(N=C2c3ccccc3OCC2C(Sc2ccc(F)cc2)Sc2ccc(F)cc2)cc1 (centres unmarked) [Example 2-11]	100	100	100			100	100	
c1ccc(N=C2c3ccccc3CCC2C(Sc2ccccc2)Sc2ccccc2)cc1 (centres unmarked) [Example 2-2]				100	100			
COc1ccc(N=C2C(=CSc3ccccc3)C(C)c3ccccc32)cc1 (mixture of isomers) [Example 1-22]	100	90	100					
Cc1ccc(N=C2C(=CSc3ccc(F)cc3)CC(C)c3ccccc32)cc1 (centres unmarked) [Example 1-14]	100	100	100	95		100	100	
Cc1ccc(N=C2C(=CSc3ccc(F)cc3)CCc3nc(Cl)ccc32)cc1 [Example 1-54]	100	80	100			80	100	
Cc1ccc(N=C2C(=CSc3ccc(F)cc3)COc3ccc(F)cc32)cc1 [Example 1-23]	100		100				100	
COc1cccc2c1CCC(=CSc1ccc(F)cc1)C2=Nc1ccc(C)cc1 [Example 1-31]	100	100	100					
CCOC1=CC(=Nc2ccc(C)cc2)C(=CSc2ccc(F)cc2F)CC1 [Example 1-98, N-(6-{[(2,4-Difluorophenyl)sulphanyl]methylene}-3-ethoxycyclohex-2-en-1-ylidene)-4-methylaniline]								pest or weed control at 500 g/ha [1]: 83%; mortality at 100 mg/m2 [5]: 80%; pest or weed control at 500 g/ha [2]: 100%
C(Sc1ccccc1)=C1CCc2ccccc2C1=Nc1ccccc1 [Example 1-8]	100	100	100	85			100	
Cc1ccc(N=C2C(=CSc3ccc(F)cc3)C(C)c3cc(C)ccc32)cc1 (mixture of isomers) [Example 1-51]	100			100	85	100	100	
Cc1ccc(N=C2C(=CSc3ccc(F)cc3)CCc3ccc(F)cc32)cc1 [Example 1-15]	100	100	100			100	100	
